Results reported in patent US20050271676A1, “Inducing cellular immune responses to human immunodeficiency virus-1 using peptide and nucleic acid compositions” (Epimmune Inc., priority 1993, published 2005).
No end group written: not given here.

Key:
[1] = target: HLA-A*0206 (Homo sapiens, UniProt P04439, D140Y/D185E/D98H/E176V/E277Q/F33Y/G131W/G231S/I119V/I121R/I166T/I218V/L300P/L318F/N151K/N90K/P208A/P217A/Q86G/Q94H/R138H/R169H/T345S); assay: purified HLA class I binding assay, A*0206
[2] = target: HLA-A*6802 (Homo sapiens, UniProt P04439, A269V/D140Y/D185E/E176V/E277Q/E87N/F33Y/G231S/I121R/I166T/I218V/L180W/L300P/L318F/N151K/P208A/P217A/Q86R/R138H/R169H/S129P/T345S/V36M); assay: purified HLA class I binding assay, A*6802
[3] = target: HLA-A*0202 (Homo sapiens, UniProt P04439, D140Y/D185E/D98H/E176V/E277Q/G131W/G231S/I119L/I121R/I166T/I218V/L180W/L300P/L318F/N151K/N90K/P208A/P217A/Q67R/Q86G/Q94H/R138H/R169H/T345S); assay: purified HLA class I binding assay, A*0202
[4] = target: HLA-A*0203 (Homo sapiens, UniProt P04439, A173T/D140Y/D185E/D98H/E277Q/G131W/G231S/I119V/I121R/I166T/I218V/L180W/L300P/L318F/N151K/N90K/P208A/P217A/Q86G/Q94H/R138H/R169H/T345S); assay: purified HLA class I binding assay, A*0203
[5] = target: T1, HLA-DRB1*0301 (DR3) (Homo sapiens, UniProt P01903+P01911, A100K/A102G/A103R/A169T/F55Y/I96L/K41T/L162R/M171V/P40S/Q125H/Q178H/Q39Y/R42S/S66N/T106N/T262R/W38E/Y61H); assay: purified HLA class II binding assay, DRB1*0301 (DR3), pH 4.5; conditions: for DR3 binding information: Table XXd, HIV DR 3b motif peptides
T1 construct: endogenous in cells; host or cells: MAT

[6] = target: HLA-A*0201 (Homo sapiens, UniProt P04439, D140Y/D185E/D98H/E176V/E277Q/G131W/G231S/I119V/I121R/I166T/I218V/L300P/L318F/N151K/N90K/P208A/P217A/Q86G/Q94H/R138H/R169H/T345S); assay: purified HLA class I binding assay, A*0201

T1 sequence (P01903 26-254 partner, other chains not shown): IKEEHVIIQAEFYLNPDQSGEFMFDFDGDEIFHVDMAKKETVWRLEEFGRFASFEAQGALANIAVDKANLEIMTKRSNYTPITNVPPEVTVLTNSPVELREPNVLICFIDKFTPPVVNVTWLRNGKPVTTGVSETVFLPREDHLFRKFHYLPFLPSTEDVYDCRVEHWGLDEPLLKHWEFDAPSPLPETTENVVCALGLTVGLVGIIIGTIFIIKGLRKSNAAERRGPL

Row | Compound | IC50 [1] [nM] | IC50 [2] [nM] | IC50 [3] [nM] | IC50 [4] [nM] | further results
1 | CC(C)C[C@H](NC(=O)[C@H](CCCCN)NC(=O)[C@H](Cc1ccccc1)NC(=O)[C@H](CS)NC(=O)[C@H](Cc1c[nH]c2ccccc12)NC(=O)CNC(=O)[C@H](Cc1ccccc1)NC(=O)[C@@H](NC(=O)[C@H](CC(C)C)NC(=O)[C@@H]1CCCN1)[C@@H](C)O)C(=O)O [25.0142] | 3700 | 47.6 | 741 |  | 
2 | CSCC[C@H](NC(=O)[C@H](C)NC(=O)[C@@H](N)CCCNC(=N)N)C(=O)N[C@@H](C)C(=O)N[C@@H](CO)C(=O)N[C@@H](CC(=O)O)C(=O)N[C@@H](Cc1ccccc1)C(=O)N[C@@H](CC(N)=O)C(=O)N[C@@H](CC(C)C)C(=O)O [1260.10] |  |  |  | 25000 | 
3 | CC[C@H](C)[C@H](NC(=O)[C@@H](NC(=O)CNC(=O)[C@H](CC(C)C)NC(=O)[C@H](C)NC(=O)[C@H](Cc1ccc(O)cc1)NC(=O)[C@H](CCC(N)=O)NC(=O)[C@H](CO)NC(=O)[C@H](CC(=O)O)NC(=O)[C@@H](NC(=O)[C@@H](NC(=O)[C@@H](NC(=O)[C@H](CC(N)=O)NC(=O)[C@@H](NC(=O)[C@@H](N)CCC(=O)O)C(C)C)[C@@H](C)CC)C(C)C)[C@@H](C)O)[C@@H](C)CC)C(=O)O [Peptide 35.0127] |  |  |  |  | IC50 [5]: 732 nM
4 | CSCC[C@H](NC(=O)[C@H](C)NC(=O)[C@H](CCC(=O)O)NC(=O)[C@H](C)NC(=O)[C@H](CC(C)C)NC(=O)[C@@H](N)C(C)C)C(=O)N[C@@H](CO)C(=O)N[C@@H](CCC(N)=O)C(=O)N[C@H](C(=O)O)C(C)C [Peptide 1069.32] |  |  | 82.7 | 15.2 | 
5 | CC[C@H](C)[C@H](NC(=O)[C@H](CC(=O)O)NC(=O)[C@@H](NC(=O)[C@H](C)NC(=O)[C@H](CC(N)=O)NC(=O)[C@H](CC(C)C)NC(=O)[C@H](CC(C)C)NC(=O)[C@@H](N)CO)[C@@H](C)O)C(=O)N[C@@H](C)C(=O)N[C@H](C(=O)O)C(C)C [Peptide 1211.09] | 28.5 | 5480 | 1300 |  | 
6 | CC[C@H](C)[C@H](NC(=O)[C@@H]1CCCN1C(=O)[C@@H]1CCCN1C(=O)[C@H](CC(N)=O)NC(=O)[C@H](CC(N)=O)NC(=O)[C@@H](NC(=O)[C@@H](N)CCSC)[C@@H](C)O)C(=O)N1CCC[C@H]1C(=O)N[C@H](C(=O)O)C(C)C [Peptide 1261.03] |  | 12.1 | 7170 |  | 
7 | CC(C)C[C@H](NC(=O)[C@H](CCCCN)NC(=O)[C@H](Cc1ccccc1)NC(=O)[C@H](CS)NC(=O)[C@H](Cc1c[nH]c2ccccc12)NC(=O)CNC(=O)[C@H](Cc1ccccc1)NC(=O)[C@@H](NC(=O)[C@@H](N)CC(C)C)[C@@H](C)O)C(=O)O [Peptide 1261.04] | 206 | 5.6 |  | 4550 | 
8 | CC[C@H](C)[C@H](NC(=O)CNC(=O)[C@H](C)NC(=O)[C@H](Cc1c[nH]c2ccccc12)NC(=O)[C@H](Cc1c[nH]c2ccccc12)NC(=O)[C@H](CS)NC(=O)[C@H](C)NC(=O)[C@H](C)NC(=O)[C@@H](N)CCCCN)C(=O)O [Peptide 1261.07] | 161 |  |  | 83.3 | 
9 | CC[C@H](C)[C@H](NC(=O)[C@H](CC(N)=O)NC(=O)[C@@H](NC(=O)[C@@H]1CCCN1C(=O)[C@@H](NC(=O)[C@@H]1CCCN1C(=O)CNC(=O)[C@@H](NC(=O)[C@@H](N)CC(C)C)C(C)C)[C@@H](C)O)C(C)C)C(=O)O [Peptide 1261.09] | 2850 | 67.8 |  | 19.2 | 
10 | CC[C@H](C)[C@H](NC(=O)[C@H](C)N)C(=O)N[C@H](C(=O)N[C@@H](CCCNC(=N)N)C(=O)N[C@H](C(=O)N[C@@H](CC(C)C)C(=O)N[C@@H](CCC(N)=O)C(=O)N[C@@H](CCC(N)=O)C(=O)N[C@@H](CC(C)C)C(=O)O)[C@@H](C)CC)[C@@H](C)CC [Peptide 1261.11] | 38.5 | 548 | 22.6 |  | 
11 | CC[C@H](C)[C@H](NC(=O)[C@H](Cc1ccccc1)NC(=O)[C@H](CC(C)C)NC(=O)[C@H](CC(C)C)NC(=O)[C@H](CCC(N)=O)NC(=O)[C@H](CCC(N)=O)NC(=O)[C@H](CC(C)C)NC(=O)[C@@H](NC(=O)[C@@H](N)CCCNC(=N)N)[C@@H](C)CC)C(=O)O [Peptide 1261.12] | 37 | 1820 |  |  | IC50 [6]: 19.2 nM
12 | CC(C)C[C@H](NC(=O)[C@H](CCCCN)NC(=O)[C@H](Cc1ccccc1)NC(=O)[C@H](CS)NC(=O)[C@H](Cc1c[nH]c2ccccc12)NC(=O)CNC(=O)[C@H](Cc1ccccc1)NC(=O)[C@@H](NC(=O)[C@@H](N)CC(C)C)[C@@H](C)O)C(=O)N[C@H](C(=O)O)C(C)C [Peptide 1261.14] |  | 6.2 | 48.9 |  | 
13 | CSCC[C@H](N)C(=O)N[C@@H](C)C(=O)N[C@@H](CO)C(=O)N[C@@H](CC(=O)O)C(=O)N[C@@H](Cc1ccccc1)C(=O)N[C@@H](CC(N)=O)C(=O)N[C@@H](CC(C)C)C(=O)N1CCC[C@H]1C(=O)N1CCC[C@H]1C(=O)N[C@H](C(=O)O)C(C)C [Peptide 1261.15] | 33.6 | 18.2 | 22.6 | 55.6 | 
14 | CC[C@H](C)[C@H](NC(=O)[C@H](Cc1ccccc1)NC(=O)CNC(=O)CNC(=O)[C@@H](NC(=O)CNC(=O)CNC(=O)[C@@H](NC(=O)[C@H](CCSC)NC(=O)[C@@H](N)CCCCN)[C@@H](C)CC)[C@@H](C)CC)C(=O)O [Peptide 1261.17] | 771 |  | 54.4 | 4.8 | 
15 | CTEMEKBGKISKIGP |  |  |  |  | DR3 binding information [5]: 0.0110
16 | DGAANRETKLCKAGY |  |  |  |  | DR3 binding information [5]: −0.0017
17 | FLGAAGSTM [1211.05] | 4110 | 66700 | 3580 | 1.5 | IC50 [6]: 73.5 nM
18 | FLQSRPEPT [25.0037] |  |  |  | 32.3 | 
